Laboratory results reported in patent publication US20240385198A1, “STING MODULATOR COMPOSITIONS AND METHODS OF USE AND DETECTION THEREOF” (University of South Florida, priority 2023, published 2024).
pKd: −log10 of the molar value. Read-outs that look alike come from different tables or passages of the source.

What was measured:
His-labeled STING = His-labeled STING (Homo sapiens, UniProt Q86WV6, H232R); assay: Microscale thermophoresis (MST) analysis of STING modulators with 50 nM 2,3-cGAMP (Example 2); format: binding; conditions: compounds incubated with 50 nM 2,3-cGAMP
Chain of His-labeled STING (Q86WV6 138-379 H232R): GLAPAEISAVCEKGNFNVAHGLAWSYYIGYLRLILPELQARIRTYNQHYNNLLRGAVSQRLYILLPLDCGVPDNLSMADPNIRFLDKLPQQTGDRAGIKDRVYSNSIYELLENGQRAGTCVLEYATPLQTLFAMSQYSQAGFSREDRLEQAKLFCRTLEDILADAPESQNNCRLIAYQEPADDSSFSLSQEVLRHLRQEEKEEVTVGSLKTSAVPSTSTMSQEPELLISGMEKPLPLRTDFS
Procedure: Nanotemper Monolith NT.115 labeled thermophoresis machine (NanoTemper Technologies GmbH, München, Germany) was used with standard treated capillary tubes using samples comprised of labeled protein and titrations of small molecule in 1×PBS. […] Detection of the protein was performed using the blue detection channel with LED excitation power set to 90% and MST set to high allowing 3 s prior to MST on to check for initial fluorescence differences, 25 s for thermophoresis, and 3 s for regeneration after MST off.
[…] Analysis was performed using M.O. Affinity Analysis Software with difference between initial fluorescence measured in the first 5 s as compared with thermophoresis at 15 s at 15 different analyte concentrations ranging from 100 zM to […] and exported into Graphpad Prism v.8 using a Log inhibitor v. response 4 parameter fit.
Microscale Thermophoresis (MST) was performed on compounds incubating with 50 nM 2,3-cGAMP. Confidence is categorized as follows: 1=low confidence (<2 MST shift unit-non-statistical); 2=mid confidence (2-3 MST shift units-intermediate); 3=high confidence ([…]-statistical). Dissociation constants are categorized as follows: A<1 pM; 1 pM≤B<100 pM; 100 pM≤C<10 μM; 10 μM≤D<100 μM.

[1] = tested on: STING R232 variant (human recombinant); assay: MST competition assay of STING oligomerization with 2′,3′-cGAMP (Example 1); format: binding; conditions: 100 nM STING, 50 nM 2′,3′-cGAMP; for EC50 interactions (high, mid, low affinity) from MST dose-response: 1:10 series dilution 100 mM to 100 zM, FIGS. 3A, 3B, 4; for Interaction with STING as a function of incubation time (dose-response curves): 15 min, 30 min, 45 min incubation, FIGS. 2A-2C
From the text: Temperature Related Intensity Change (TRIC) is a biophysical technique that measures the strength of the interaction between two molecules by detecting a variation in the fluorescence signal of a fluorescently labeled or intrinsically fluorescent target as a result of an IR-laser induced temperature change. The extent of the temperature dependence is strongly related to the chemical environment of the fluorophore, which can be changed by the binding of a ligand to the target. Binding events below the picomolar level are difficult to detect because below this level, the ratio between target protein and analyte is too large for the detector to accurately measure movement. Herein describes a competition assay involving STING along with 2′,3′-cGAMP to detect analyte interaction with STING at sub-picomolar levels by measuring changes to oligomerization of STING.
The NanoTemper Pico instrument produces data in three separate phases: fluorescent count; normalized MST time-trace; and the change in normalized fluorescence (ΔFnorm) result. The fluorescent count is done to ensure that there is no difference between overall fluorescence between fractions, that there is enough fluorescent signal present for the detector to accurately give a reading, but not too much as to negatively affect migration during thermophoresis. It also gives indication if there is aggregation or adsorption within samples. The normalized MST time-trace gives an indication of the movement of molecules by thermophoresis within the detector sight picture over a period of time (T−Jump). The final graph is a ΔFnorm readout which is mathematically determined using the formula:
ΔFnorm=Fhot/Fcold • whereas Fhot equals an area designated by the analyst, located within the T−Jump area and Fcold equals the area within the initial fluorescence area just before the infrared (IR) laser heats the capillary tube.
STING R232 variant (human recombinant) protein was solubilized at 200 nM in HBS-P (0.01M HEPES pH 7.4, 0.15 NaCl, 0.005% v/v surfactant P20) along with 100 nM 2′,3′-cGAMP. 100 nM of NTAAtto 488 dye (blue; nitrilotriacetic acid complexed to Ni^2+) was added and incubated for 1 hour at room temperature covered from light. The resulting mixture was centrifuged at 12,000×RPM for 10 minutes prior to use. A 1:10 series dilution from 200 mM to 200 zM was created using HBS-P with 1% DMSO. The dyed STING/2′,3′-cGAMP mixture was added to each sample in a 1:1 ratio, resulting in a static 100 nM STING, 50 nM 2′,3′-cGAMP, and a concentration range from 100 mM to 100zM. Samples were incubated for 15-minutes prior to load into Monolith NT.115 capillaries and ran on dianthus NT.23 NanoTemper Pico instrument (NanoTemper Technologies GmbH, München, Germany). Samples were run again at 30- and 45-minutes.

[2] = read-out: Dissociation Constant
[3] = first of two binding events, read-out: Dissociation Constant Kd1
[4] = second of two binding events, read-out: Dissociation Constant Kd2

Structure (SMILES) | Confidence (MST shift units) (His-labeled STING) | pKd (His-labeled STING; [2]) | other results
Cc1c(Cl)cccc1Nc1ncccc1COCC(O)CO (stereo not drawn) [Compound 1] | 1 (1=low confidence (<2 MST shift unit-non-statistical)) | 10.00 to 12.00 | 
Cc1c(Cl)cccc1Nc1ncccc1CO [Compound 4] | 2 (2=mid confidence (2-3 MST shift units-intermediate)) | > 12.00 | 
COC(=O)c1cccnc1Nc1cccc(Cl)c1C [Compound 9] | 3 (3=high confidence (>2 MST shift units-statistical)) |  | pKd (His-labeled STING; [3]): 5.00 to 10.00; pKd (His-labeled STING; [4]): > 12.00
CCOC(=O)c1cccnc1Nc1cccc(Cl)c1C [Compound 10] | 1 (1=low confidence (<2 MST shift unit-non-statistical)) |  | Dissociation Constant (His-labeled STING): Low R2
CCCOC(=O)c1cccnc1Nc1cccc(Cl)c1C [Compound 11] | 1 (1=low confidence (<2 MST shift unit-non-statistical)) |  | pKd (His-labeled STING; [3]): 5.00 to 10.00; pKd (His-labeled STING; [4]): > 12.00
C#CCOC(=O)c1cccnc1Nc1cccc(Cl)c1C [Compound 13] | 2 (2=mid confidence (2-3 MST shift units-intermediate)) | 4.00 to 5.00 | 
CNC(=O)c1cccnc1Nc1cccc(Cl)c1C [Compound 14] | 2 (2=mid confidence (2-3 MST shift units-intermediate)) | 5.00 to 10.00 | 
CCNC(=O)c1cccnc1Nc1cccc(Cl)c1C [Compound 15] | 1 (1=low confidence (<2 MST shift unit-non-statistical)) | 5.00 to 10.00 | 
CCCNC(=O)c1cccnc1Nc1cccc(Cl)c1C [Compound 16] | 2 (2=mid confidence (2-3 MST shift units-intermediate)) | 5.00 to 10.00 | 
C=CCNC(=O)c1cccnc1Nc1cccc(Cl)c1C [Compound 17] | 1 (1=low confidence (<2 MST shift unit-non-statistical)) | 5.00 to 10.00 | 
Cc1c(Cl)cccc1Nc1ncccc1C(=O)OCC(O)CO (stereo not drawn) [Compound 19] | 1 (1=low confidence (<2 MST shift unit-non-statistical)) | > 12.00 | 
CCCCC(=O)c1cccnc1Nc1cccc(Cl)c1C [Compound 21] | 2 (2=mid confidence (2-3 MST shift units-intermediate)) | 5.00 to 10.00 | 
Cc1c(Br)cccc1Nc1ncccc1C(=O)O [Compound 23] | 3 (3=high confidence (>2 MST shift units-statistical)) | 4.00 to 5.00 | 
COC(=O)c1cccnc1Nc1cccc(Br)c1C [Compound 24] | 1 (1=low confidence (<2 MST shift unit-non-statistical)) | 10.00 to 12.00 | 
Cc1c(Br)cccc1Nc1ncccc1C(=O)OCC(O)CO (stereo not drawn) [Compound 26] |  | > 12.00 | 
Cc1c(Nc2ncccc2C(=O)O)cccc1C(F)(F)F [Compound 27] | 3 (3=high confidence (>2 MST shift units-statistical)) | 5.00 to 10.00 | 
Cc1c(Nc2ncccc2C(=O)OCC(O)CO)cccc1C(F)(F)F (stereo not drawn) [Compound 29] |  | > 12.00 | 
COC(=O)c1cccnc1Nc1cccc(C(F)(F)F)c1C [Compound 30] |  | 10.00 to 12.00 | 

Structure (SMILES) | Confidence (MST shift units) (His-labeled STING) | pKd (His-labeled STING; [2]) | other results
Cc1c(Cl)cccc1Nc1ccccc1C(=O)O [Compound 36] | 1 (1=low confidence (<2 MST shift unit-non-statistical)) |  | Dissociation Constant (His-labeled STING): No Binding
Cc1c(Cl)cccc1Nc1ccccc1C(=O)OCC(O)CO (stereo not drawn) [Compound 38] | 1 (1=low confidence (<2 MST shift unit-non-statistical)) |  | pKd (His-labeled STING; [3]): 5.00 to 10.00; pKd (His-labeled STING; [4]): > 12.00
Cc1c(Cl)cccc1Nc1ncccc1CN [Compound 40] |  |  | pKd (His-labeled STING; [3]): 5.00 to 10.00; pKd (His-labeled STING; [4]): > 12.00
Cc1c(Cl)cccc1Nc1ncccc1C(=O)OCCCOC(=O)c1cccnc1Nc1cccc(Cl)c1C [Compound 41] | 1 (1=low confidence (<2 MST shift unit-non-statistical)) | 5.00 to 10.00 | 
CCC(COC(=O)c1cccnc1Nc1cccc(Br)c1C)OC (stereo not drawn) [Compound 42] | 2 (2=mid confidence (2-3 MST shift units-intermediate)) |  | 
CCC(COC(=O)c1cccnc1Nc1cccc(C)c1C)OC (stereo not drawn) [Compound 43] | 1 (1=low confidence (<2 MST shift unit-non-statistical)) |  | 
COC(=O)c1cccnc1Nc1cccc(F)c1C [Compound 44] | 1 (1=low confidence (<2 MST shift unit-non-statistical)) | 10.00 to 12.00 | 
Cc1cccc(Nc2ccccc2C(=O)O)c1C [Compound 45] | 1 (1=low confidence (<2 MST shift unit-non-statistical)) |  | Dissociation Constant (His-labeled STING): No Binding
CCC(COC(=O)c1ccccc1Nc1cccc(C)c1C)OC (stereo not drawn) [Compound 46] | 1 (1=low confidence (<2 MST shift unit-non-statistical)) |  | 
Cc1cccc(Nc2ncccc2C(=O)O)c1C [Compound 47] | 1 (1=low confidence (<2 MST shift unit-non-statistical)) |  | Dissociation Constant (His-labeled STING): No Binding
Cc1cccc(Nc2ncccc2C(=O)OCC(O)CO)c1C (stereo not drawn) [Compound 48] | 1 (1=low confidence (<2 MST shift unit-non-statistical)) |  | Dissociation Constant (His-labeled STING): No Binding
Cc1c(Cl)cccc1Nc1ncccc1C(=O)OCCCCOC(=O)c1cccnc1Nc1cccc(Cl)c1C [Compound 49] | 1 (1=low confidence (<2 MST shift unit-non-statistical)) | 10.00 to 12.00 | 
Cc1c(Cl)cccc1Nc1ncccc1C(=O)OCCCCCOC(=O)c1cccnc1Nc1cccc(Cl)c1C [Compound 50] | 3 (3=high confidence (>2 MST shift units-statistical)) | 5.00 to 10.00 | 
NC(=O)NC1NC(=O)NC1=O (stereo not drawn) [Compound 52] | 3 (3=high confidence (>2 MST shift units-statistical)) |  | pKd (His-labeled STING; [3]): 5.00 to 10.00; pKd (His-labeled STING; [4]): > 12.00
COC(=O)c1cccnc1Nc1cccc(Cl)c1C [Formula (I)] |  |  | EC50 interactions (high, mid, low affinity) from MST dose-response [1]: several nonlinear regression curves
C#CCOC(=O)c1cccnc1Nc1cccc(Cl)c1C [Formula (II)] |  |  | EC50 interactions (high, mid, low affinity) from MST dose-response [1]: only a low affinity EC50
CNC(=O)c1cccnc1Nc1cccc(Cl)c1C [Formula (III)] |  |  | Interaction with STING as a function of incubation time (dose-response curves) [1]: relatively slow interaction
CNCc1cccnc1Nc1cccc(Cl)c1C [Formula (IV)] |  |  | Interaction with STING as a function of incubation time (dose-response curves) [1]: relatively rapid interaction with STING that was not maintained
